From the CheMixHub viscosity set

Test: xn = mol fraction of the nth substance listed

C#CCO + O
viscosity [mPa·s]
Conditions | 303.15 K | 308.15 K | 313.15 K | 318.15 K | 323.15 K
101 kPa, x1 = 0.1 | 1.094 | 0.9708 | 0.8728 | 0.7923 | 0.7208
101 kPa, x1 = 0.166 | 1.191 | 1.06 | 0.9534 | 0.8633 | 0.7845
101 kPa, x1 = 0.3 | 1.275 | 1.135 | 1.023 | 0.9273 | 0.845
101 kPa, x1 = 0.4 | 1.291 | 1.157 | 1.048 | 0.9513 | 0.8707
101 kPa, x1 = 0.499 | 1.296 | 1.165 | 1.054 | 0.9624 | 0.8802
101 kPa, x1 = 0.599 | 1.309 | 1.179 | 1.069 | 0.9758 | 0.8933
101 kPa, x1 = 0.7 | 1.313 | 1.188 | 1.079 | 0.9844 | 0.902
101 kPa, x1 = 0.801 | 1.327 | 1.202 | 1.092 | 0.9977 | 0.9169
101 kPa, x1 = 0.899 | 1.33 | 1.204 | 1.095 | 1 | 0.9179
101.32 kPa, x1 = 0.1138 | – | 0.9894 | 0.8862 | 0.7991 | 0.7267
101.32 kPa, x1 = 0.2351 | – | 1.105 | 0.9927 | 0.8936 | 0.8222
101.32 kPa, x1 = 0.3145 | – | 1.149 | 1.034 | 0.9365 | 0.8508
101.32 kPa, x1 = 0.4174 | – | 1.171 | 1.059 | 0.9551 | 0.8741
101.32 kPa, x1 = 0.5002 | – | 1.186 | 1.069 | 0.9676 | 0.8856
101.32 kPa, x1 = 0.61 | – | 1.194 | 1.077 | 0.9877 | 0.8958
101.32 kPa, x1 = 0.7185 | – | 1.2 | 1.085 | 0.9924 | 0.9072
101.32 kPa, x1 = 0.8223 | – | 1.209 | 1.095 | 1 | 0.9191
101.32 kPa, x1 = 0.9 | – | 1.216 | 1.107 | 1.007 | 0.9223

Cc1cccc(C)n1 + c1ccccc1
viscosity [mPa·s], 101 kPa
Conditions | x1 = 0.0985 | x1 = 0.1989 | x1 = 0.2996 | x1 = 0.3945 | x1 = 0.5025 | x1 = 0.5994 | x1 = 0.6976 | x1 = 0.8006 | x1 = 0.9013
303 K | 0.5677 | 0.58 | 0.607 | 0.6191 | 0.6385 | 0.6614 | 0.6823 | 0.7108 | 0.7403
313 K | 0.501 | 0.514 | 0.5301 | 0.5472 | 0.5654 | 0.5824 | 0.6012 | 0.6267 | 0.648
323 K | 0.4471 | 0.4595 | 0.4735 | 0.4858 | 0.5011 | 0.5177 | 0.5355 | 0.5569 | 0.5778

O=S(Cl)Cl + Cc1ccccc1
298.15 K, 101 kPa
Conditions | viscosity [mPa·s]
x1 = 0.261 | 0.5832
x1 = 0.426 | 0.6019
x1 = 0.559 | 0.6139
x1 = 0.72 | 0.6223
x1 = 0.802 | 0.625
x1 = 0.923 | 0.6236

ClC(Cl)C(Cl)(Cl)Cl + c1ccc(Oc2ccccc2)cc1
298.15 K, 101 kPa
Conditions | viscosity [mPa·s]
x2 = 0.2642 | 2.64
x2 = 0.5109 | 2.97
x2 = 0.7611 | 3.36

ClC(Cl)C(Cl)(Cl)Cl + CCOc1ccccc1
298.15 K, 101 kPa
Conditions | viscosity [mPa·s]
x2 = 0.0971 | 2.1
x2 = 0.2214 | 1.92
x2 = 0.4895 | 1.607
x2 = 0.6798 | 1.393
x2 = 0.903 | 1.206

C1COCO1 + CC(C)(C)O
303.15 K, 101 kPa
Conditions | viscosity [mPa·s]
x1 = 0.1001 | 1.967
x1 = 0.2001 | 1.468
x1 = 0.3001 | 1.102
x1 = 0.4001 | 0.8793
x1 = 0.5001 | 0.7657
x1 = 0.6001 | 0.6755
x1 = 0.7001 | 0.6067
x1 = 0.8001 | 0.5731
x1 = 0.9001 | 0.566

CN(C)P(=O)(N(C)C)N(C)C + CCO
303.15 K, 101.3 kPa
Conditions | viscosity [mPa·s]
x1 = 0.1007 | 1.255
x1 = 0.2043 | 1.461
x1 = 0.2959 | 1.627
x1 = 0.3983 | 1.807
x1 = 0.5079 | 2.005
x1 = 0.5998 | 2.18
x1 = 0.698 | 2.362
x1 = 0.8012 | 2.557
x1 = 0.9052 | 2.75

CN(C)P(=O)(N(C)C)N(C)C + CC(C)(C)O
303.15 K, 101.3 kPa
Conditions | viscosity [mPa·s]
x1 = 0.0784 | 3.704
x1 = 0.103 | 3.722
x1 = 0.1988 | 3.624
x1 = 0.2201 | 3.547
x1 = 0.3076 | 3.4
x1 = 0.4051 | 3.263
x1 = 0.4476 | 3.23
x1 = 0.5093 | 3.185
x1 = 0.6062 | 3.118
x1 = 0.7077 | 3.068
x1 = 0.8008 | 3.02
x1 = 0.9029 | 2.973

CCCOCC(C)O (stereo not drawn) + CCCNCCC
viscosity [mPa·s], 100 kPa
Conditions | 298.15 K | 303.15 K | 308.15 K
x1 = 0.0501 | 0.5507 | 0.5133 | 0.4872
x1 = 0.1003 | 0.6065 | 0.556 | 0.5257
x1 = 0.1502 | 0.6545 | 0.6056 | 0.571
x1 = 0.1999 | 0.7308 | 0.6597 | 0.6196
x1 = 0.3 | 0.8816 | 0.7957 | 0.7427
x1 = 0.4 | 1.089 | 0.969 | 0.894
x1 = 0.4999 | 1.294 | 1.144 | 1.052
x1 = 0.6 | 1.558 | 1.351 | 1.228
x1 = 0.6999 | 1.823 | 1.571 | 1.415
x1 = 0.7997 | 2.079 | 1.784 | 1.603
x1 = 0.8999 | 2.275 | 1.945 | 1.748
x1 = 0.9498 | 2.357 | 2.016 | 1.815
